Test results published in patent US9346815B2, “5-chloro-2-difluoromethoxyphenyl pyrazolopyrimidine compounds, compositions and methods of use thereof” (Genentech, Inc., priority 2014, dated 2016).

Legend:
[1] = biological target: isolated recombinant JAK1 kinase domain (Homo sapiens (Human), UniProt P23458); assay: JAK1 enzyme assay (Caliper LabChip, peptide phosphorylation); format: biochemical; conditions: isolated recombinant JAK1 kinase domain, 25 μM ATP
[2] = biological target: isolated recombinant JAK2 kinase domain (Homo sapiens (Human), UniProt O60674); assay: JAK2 enzyme assay (Caliper LabChip, peptide phosphorylation); format: biochemical; conditions: 25 μM ATP
[3] = tested on: JAK1-dependent STAT6 phosphorylation downstream of IL-13 stimulation in TF-1 human erythroleukemia cells; assay: JAK1 pathway assay in TF-1 cells (IL-13-pSTAT6, MSD); format: cell-based; conditions: Homo sapiens, TF-1, TF-1 cells, read-out: IL13-pSTAT6 EC50_TF-1
How it was run: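 TF-1 cells are starved of GM-CSF overnight and run in serum-free medium, while BEAS-2B cells stay in complete growth medium. Inhibition of STAT6 phosphorylation is measured by MSD.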

Chain of isolated recombinant JAK1 kinase domain (P23458 875-1153): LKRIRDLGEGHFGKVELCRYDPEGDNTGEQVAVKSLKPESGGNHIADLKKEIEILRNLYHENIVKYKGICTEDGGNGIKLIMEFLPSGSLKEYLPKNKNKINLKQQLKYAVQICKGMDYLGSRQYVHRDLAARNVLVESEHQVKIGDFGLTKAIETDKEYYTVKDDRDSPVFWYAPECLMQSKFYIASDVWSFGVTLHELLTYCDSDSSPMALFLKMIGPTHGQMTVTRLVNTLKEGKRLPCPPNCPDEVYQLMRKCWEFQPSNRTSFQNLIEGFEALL
Chain of isolated recombinant JAK2 kinase domain (O60674 849-1124): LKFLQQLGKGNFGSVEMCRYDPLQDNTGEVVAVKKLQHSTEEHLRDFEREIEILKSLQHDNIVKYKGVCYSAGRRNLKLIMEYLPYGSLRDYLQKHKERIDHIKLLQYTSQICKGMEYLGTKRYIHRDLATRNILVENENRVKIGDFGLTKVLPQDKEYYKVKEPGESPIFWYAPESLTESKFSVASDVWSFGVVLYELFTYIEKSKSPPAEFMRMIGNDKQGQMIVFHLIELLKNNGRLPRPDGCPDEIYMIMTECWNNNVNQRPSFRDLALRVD

Compound	Ki [1]	Ki [2]	EC50 [3]
O=C(Nc1cn(C2CCN(CCCN3CCS(=O)(=O)CC3)CC2)nc1-c1cc(Cl)ccc1OC(F)F)c1cnn2cccnc12 [Example 161, N-[3-[5-chloro-2-(difluoromethoxy)phenyl]-1-[1-[3-(1,1-dioxo-1,4-thiazinan-4-yl)propyl]-4-piperidyl]pyrazol-4-yl]pyrazolo[1,5-a]pyrimidine-3-carboxamide]	1230 pM	130 pM	22300 pM
CN1CCN(CCCN2CCC(n3cc(NC(=O)c4c(N)nn5cccnc45)c(-c4cc(Cl)ccc4OC(F)F)n3)CC2)C1=O [Example 164, 2-amino-N-[3-[5-chloro-2-(difluoromethoxy)phenyl]-1-[1-[3-(3-methyl-2-oxo-imidazolidin-1-yl)propyl]-4-piperidyl]pyrazol-4-yl]pyrazolo[1,5-a]pyrimidine-3-carboxamide]	440 pM	60 pM	5600 pM
NC(=O)CCN1CCC(n2cc(NC(=O)c3c(N)nn4cccnc34)c(-c3cc(Cl)ccc3OC(F)F)n2)CC1 [Example 165, 2-amino-N-[1-[1-(3-amino-3-oxo-propyl)-4-piperidyl]-3-[5-chloro-2-(difluoromethoxy)phenyl]pyrazol-4-yl]pyrazolo[1,5-a]pyrimidine-3-carboxamide]	380 pM	150 pM	6900 pM
Nc1nn2cccnc2c1C(=O)Nc1cn(C2CCN(CCCC(=O)NCc3ccccc3)CC2)nc1-c1cc(Cl)ccc1OC(F)F [Example 167, 2-amino-N-[1-[1-[4-(benzylamino)-4-oxo-butyl]-4-piperidyl]-3-[5-chloro-2-(difluoromethoxy)phenyl]pyrazol-4-yl]pyrazolo[1,5-a]pyrimidine-3-carboxamide]	530 pM	180 pM	19700 pM
CNC(=O)CCCN1CCC(n2cc(NC(=O)c3cnn4cccnc34)c(-c3cc(Cl)ccc3OC(F)F)n2)CC1 [Example 168, N-[3-[5-chloro-2-(difluoromethoxy)phenyl]-1-[1-[4-(methylamino)-4-oxo-butyl]-4-piperidyl]pyrazol-4-yl]pyrazolo[1,5-a]pyrimidine-3-carboxamide]	1470 pM	290 pM	7700 pM
O=C(Nc1cn(C2CCN(CCCC(=O)N3CCOCC3)CC2)nc1-c1cc(Cl)ccc1OC(F)F)c1cnn2cccnc12 [Example 169, N-[3-[5-chloro-2-(difluoromethoxy)phenyl]-1-[1-(4-morpholino-4-oxo-butyl)-4-piperidyl]pyrazol-4-yl]pyrazolo[1,5-a]pyrimidine-3-carboxamide]	1160 pM	220 pM	6800 pM
CN1CCCC(n2cc(NC(=O)c3c(N)nn4cccnc34)c(-c3cc(Cl)ccc3OC(F)F)n2)CC1 (stereo not drawn) [Example 172, 2-amino-N-[3-[5-chloro-2-(difluoromethoxy)phenyl]-1-(1-methylazepan-4-yl)pyrazol-4-yl]pyrazolo[1,5-a]pyrimidine-3-carboxamide]	880 pM	150 pM	15900 pM
CC(=O)N1CCC(CN2CCC(n3cc(NC(=O)c4c(N)nn5cccnc45)c(-c4cc(Cl)ccc4OC(F)F)n3)CC2)CC1 [Example 173, N-[1-[1-[(1-acetyl-4-piperidyl)methyl]-4-piperidyl]-3-[5-chloro-2-(difluoromethoxy)phenyl]pyrazol-4-yl]-2-amino-pyrazolo[1,5-a]pyrimidine-3-carboxamide]	580 pM	130 pM	4800 pM
CS(=O)(=O)CCCN1CCC(n2cc(NC(=O)c3c(N)nn4cccnc34)c(-c3cc(Cl)ccc3OC(F)F)n2)CC1 [Example 177, 2-amino-N-[3-[5-chloro-2-(difluoromethoxy)phenyl]-1-[1-(3-methylsulfonylpropyl)-4-piperidyl]pyrazol-4-yl]pyrazolo[1,5-a]pyrimidine-3-carboxamide]	450 pM	90 pM	15000 pM
CN1CC[C@H](n2cc(NC(=O)c3c(N)nn4cccnc34)c(-c3cc(Cl)ccc3OC(F)F)n2)C1 [Example 182, 2-amino-N-[3-[5-chloro-2-(difluoromethoxy)phenyl]-1-[(3S)-1-methylpyrrolidin-3-yl]pyrazol-4-yl]pyrazolo[1,5-a]pyrimidine-3-carboxamide]	490 pM	200 pM	8900 pM
CN1CC[C@@H](n2cc(NC(=O)c3c(N)nn4cccnc34)c(-c3cc(Cl)ccc3OC(F)F)n2)C1 [Example 183, 2-amino-N-[3-[5-chloro-2-(difluoromethoxy)phenyl]-1-[(3R)-1-methylpyrrolidin-3-yl]pyrazol-4-yl]pyrazolo[1,5-a]pyrimidine-3-carboxamide]	490 pM	230 pM	6800 pM

Further molecules by falling Ki [1], results first:

Ki [1]	Ki [2]	EC50 [3]	Compound
3040 pM	900 pM	130000 pM	Nc1nn2cccnc2c1C(=O)Nc1cn(C2CCN(CCCCc3ccccc3)CC2)nc1-c1cc(Cl)ccc1OC(F)F [Example 179, 2-amino-N-[3-[5-chloro-2-(difluoromethoxy)phenyl]-1-[1-(4-phenylbutyl)-4-piperidyl]pyrazol-4-yl]pyrazolo[1,5-a]pyrimidine-3-carboxamide]
3020 pM	390 pM	19300 pM	CNC(=O)CCN1CCC(n2cc(NC(=O)c3cnn4cccnc34)c(-c3cc(Cl)ccc3OC(F)F)n2)CC1 [Example 160, N-[3-[5-chloro-2-(difluoromethoxy)phenyl]-1-[1-[3-(methylamino)-3-oxo-propyl]-4-piperidyl]pyrazol-4-yl]pyrazolo[1,5-a]pyrimidine-3-carboxamide]
1990 pM	480 pM	95600 pM	Nc1nn2cccnc2c1C(=O)Nc1cn(C2CCN(CCCCOCCc3ccccc3)CC2)nc1-c1cc(Cl)ccc1OC(F)F [Example 181, 2-amino-N-[3-[5-chloro-2-(difluoromethoxy)phenyl]-1-[1-[4-(2-phenylethoxy)butyl]-4-piperidyl]pyrazol-4-yl]pyrazolo[1,5-a]pyrimidine-3-carboxamide]
1670 pM	250 pM	11400 pM	NC(=O)CCCN1CCC(n2cc(NC(=O)c3cnn4cccnc34)c(-c3cc(Cl)ccc3OC(F)F)n2)CC1 [Example 170, N-[1-[1-(4-amino-4-oxo-butyl)-4-piperidyl]-3-[5-chloro-2-(difluoromethoxy)phenyl]pyrazol-4-yl]pyrazolo[1,5-a]pyrimidine-3-carboxamide]
1250 pM	350 pM	38400 pM	Nc1nn2cccnc2c1C(=O)Nc1cn(C2CCN(CCOCc3ccccc3)CC2)nc1-c1cc(Cl)ccc1OC(F)F [Example 180, 2-amino-N-[1-[1-(2-benzyloxyethyl)-4-piperidyl]-3-[5-chloro-2-(difluoromethoxy)phenyl]pyrazol-4-yl]pyrazolo[1,5-a]pyrimidine-3-carboxamide]
1230 pM	430 pM	83900 pM	Nc1nn2cccnc2c1C(=O)Nc1cn(C2CCN(Cc3ccccc3)CC2)nc1-c1cc(Cl)ccc1OC(F)F [Example 178, 2-amino-N-[1-(1-benzyl-4-piperidyl)-3-[5-chloro-2-(difluoromethoxy)phenyl]pyrazol-4-yl]pyrazolo[1,5-a]pyrimidine-3-carboxamide]
910 pM	260 pM	22900 pM	Nc1nn2cccnc2c1C(=O)Nc1cn(C2CCN(CCCN3CCN(Cc4ccccc4)C3=O)CC2)nc1-c1cc(Cl)ccc1OC(F)F [Example 166, 2-amino-N-[1-[1-[3-(3-benzyl-2-oxo-imidazolidin-1-yl)propyl]-4-piperidyl]-3-[5-chloro-2-(difluoromethoxy)phenyl]pyrazol-4-yl]pyrazolo[1,5-a]pyrimidine-3-carboxamide]
780 pM	130 pM	13400 pM	CCOC(=O)CCCN1CCC(n2cc(NC(=O)c3c(N)nn4cccnc34)c(-c3cc(Cl)ccc3OC(F)F)n2)CC1 [Example 175, ethyl 4-[4-[4-[(2-aminopyrazolo[1,5-a]pyrimidine-3-carbonyl)amino]-3-[5-chloro-2-(difluoromethoxy)phenyl]pyrazol-1-yl]-1-piperidyl]butanoate]
690 pM	190 pM	7300 pM	Nc1nn2cccnc2c1C(=O)Nc1cn(C2CCN(CCCN3CCNC3=O)CC2)nc1-c1cc(Cl)ccc1OC(F)F [Example 163, 2-amino-N-[3-[5-chloro-2-(difluoromethoxy)phenyl]-1-[1-[3-(2-oxoimidazolidin-1-yl)propyl]-4-piperidyl]pyrazol-4-yl]pyrazolo[1,5-a]pyrimidine-3-carboxamide]
680 pM	120 pM	12700 pM	Nc1nn2cccnc2c1C(=O)Nc1cn(C2CCN(CCCO)CC2)nc1-c1cc(Cl)ccc1OC(F)F [Example 176, 2-amino-N-[3-[5-chloro-2-(difluoromethoxy)phenyl]-1-[1-(3-hydroxypropyl)-4-piperidyl]pyrazol-4-yl]pyrazolo[1,5-a]pyrimidine-3-carboxamide]
670 pM	90 pM	12300 pM	CC(C)CN1CCC(n2cc(NC(=O)c3c(N)nn4cccnc34)c(-c3cc(Cl)ccc3OC(F)F)n2)CC1 [Example 174, 2-amino-N-[3-[5-chloro-2-(difluoromethoxy)phenyl]-1-(1-isobutyl-4-piperidyl)pyrazol-4-yl]pyrazolo[1,5-a]pyrimidine-3-carboxamide]
590 pM	180 pM	15400 pM	NC(=O)CCCN1CCC(n2cc(NC(=O)c3c(N)nn4cccnc34)c(-c3cc(Cl)ccc3OC(F)F)n2)CC1 [Example 162, 2-amino-N-[1-[1-(4-amino-4-oxo-butyl)-4-piperidyl]-3-[5-chloro-2-(difluoromethoxy)phenyl]pyrazol-4-yl]pyrazolo[1,5-a]pyrimidine-3-carboxamide]
